From paper PMC11881559 (Antimicrobial Agents and Chemotherapy, 2025)

Assay: Tolerability and safety assessment (AEs/ADRs, CTCAE 5.0)
Format: in vivo, human
Experimental: Safety and tolerability assessments were conducted for all participants who received at least one dose of RAY1216, either alone or in combination with ritonavir, throughout the study. The safety of all participants was evaluated on the basis of clinical symptoms, vital signs, 12-lead ECG, laboratory tests, physical examinations, and the evaluation of adverse events (AEs). All AEs were documented and graded according to the Common Terminology Criteria for Adverse Events (CTCAE, ver. 5.0). The grading scale was as follows: grade 1 (mild), grade 2 (moderate), grade 3 (severe), grade 4 (life threatening), and grade 5 (death).

[1] = Food effect, 800 mg, Fast (N = 12)
[2] = Food effect, 800 mg, Fed (N = 12)

For O=C(NC1CCCC1)C(=O)[C@H](C[C@@H]1CCNC1=O)NC(=O)[C@@H]1[C@H]2CCC[C@H]2CN1C(=O)[C@@H](NC(=O)C(F)(F)F)C1CCCCC1 [RAY1216, leritrelvir], the “participants who experienced at least one adverse event (AE)” value (37 of all 88 participants (RAY1216 or placebo)) was 42%, the “ADR, n (%)” value [1] was 2 (16.7) n (%) and the “AE, n (%)” value [1] was 3 (25.0) n (%). The “ALT elevated (ADR)” value [1] was 0 n (%), the “AST elevated (ADR)” value [1] was 0 n (%) and the “Anemia (ADR)” value [1] was 0 n (%). The “Bilirubin elevated (ADR)” value [1] was 0 n (%), the “Diarrhea (ADR)” value [1] was 0 n (%) and the “Fatigue (ADR)” value [1] was 0 n (%). The “Grade 2 ADRs” value [1] was 1 (8.3) n (%), the “Grade ≥3 AEs” value [1] was 0 n (%) and the “Hypertriglyceridemia (ADR)” value [1] was 0 n (%). For the same molecule, the “Hyperuricemia (ADR)” value [1] was 0 n (%), the “Leukopenia (ADR)” value [1] was 1 (8.3) n (%) and the “Nausea (ADR)” value [1] was 0 n (%). For the same molecule, the “Neutrophil decreased (ADR)” value [1] was 1 (8.3) n (%), the “Palpitations (ADR)” value [1] was 0 n (%) and the “Serum creatinine elevated (ADR)” value [1] was 0 n (%). For the same molecule, the “ADR, n (%)” value [2] was 4 (33.3) n (%), the “AE, n (%)” value [2] was 5 (41.7) n (%) and the “ALT elevated (ADR)” value [2] was 0 n (%). For the same molecule, the “AST elevated (ADR)” value [2] was 0 n (%), the “Anemia (ADR)” value [2] was 0 n (%) and the “Bilirubin elevated (ADR)” value [2] was 0 n (%). The “Diarrhea (ADR)” value [2] was 0 n (%), the “Fatigue (ADR)” value [2] was 0 n (%) and the “Grade 2 ADRs” value [2] was 1 (8.3) n (%). The “Grade ≥3 AEs” value [2] was 0 n (%), the “Hypertriglyceridemia (ADR)” value [2] was 1 (8.3) n (%) and the “Hyperuricemia (ADR)” value [2] was 0 n (%). The “Leukopenia (ADR)” value [2] was 0 n (%), the “Nausea (ADR)” value [2] was 0 n (%) and the “Neutrophil decreased (ADR)” value [2] was 0 n (%). For the same molecule, the “Palpitations (ADR)” value [2] was 0 n (%), the “Serum creatinine elevated (ADR)” value [2] was 2 (16.7) n (%) and the “participants reporting at least one ADR” value (MAD study with or without ritonavir, 9 out of 32 participants) was 28.1%. For the same molecule, the “ADR, n (%)” value (MAD, 400 mg TID (N = 6)) was 2 (33.3) n (%), the “AE, n (%)” value (MAD, 400 mg TID (N = 6)) was 2 (33.3) n (%) and the “ALT elevated (ADR)” value (MAD, 400 mg TID (N = 6)) was 0 n (%). The “AST elevated (ADR)” value (MAD, 400 mg TID (N = 6)) was 0 n (%), the “Anemia (ADR)” value (MAD, 400 mg TID (N = 6)) was 0 n (%) and the “Bilirubin elevated (ADR)” value (MAD, 400 mg TID (N = 6)) was 0 n (%). The “Diarrhea (ADR)” value (MAD, 400 mg TID (N = 6)) was 0 n (%), the “Fatigue (ADR)” value (MAD, 400 mg TID (N = 6)) was 0 n (%) and the “Grade 2 ADRs” value (MAD, 400 mg TID (N = 6)) was 0 n (%). For the same molecule, the “Grade ≥3 AEs” value (MAD, 400 mg TID (N = 6)) was 0 n (%), the “Hypertriglyceridemia (ADR)” value (MAD, 400 mg TID (N = 6)) was 1 (16.7) n (%) and the “Hyperuricemia (ADR)” value (MAD, 400 mg TID (N = 6)) was 0 n (%). For the same molecule, the “Leukopenia (ADR)” value (MAD, 400 mg TID (N = 6)) was 0 n (%), the “Nausea (ADR)” value (MAD, 400 mg TID (N = 6)) was 0 n (%) and the “Neutrophil decreased (ADR)” value (MAD, 400 mg TID (N = 6)) was 0 n (%). The “Palpitations (ADR)” value (MAD, 400 mg TID (N = 6)) was 0 n (%), the “Serum creatinine elevated (ADR)” value (MAD, 400 mg TID (N = 6)) was 0 n (%) and the “participants reporting at least one ADR” value (MAD, 400 mg TID group, two participants) was 33.3%. For the same molecule, the “participants reporting at least one ADR” value (SAD, 200 mg cohort, two participants) was 33.3%, the “ADR, n (%)” value (SAD, 400 mg (N = 6)) was 2 (33.3) n (%) and the “AE, n (%)” value (SAD, 400 mg (N = 6)) was 2 (33.3) n (%). The “ALT elevated (ADR)” value (SAD, 400 mg (N = 6)) was 0 n (%), the “AST elevated (ADR)” value (SAD, 400 mg (N = 6)) was 0 n (%) and the “Anemia (ADR)” value (SAD, 400 mg (N = 6)) was 0 n (%). For the same molecule, the “Bilirubin elevated (ADR)” value (SAD, 400 mg (N = 6)) was 1 (16.7) n (%), the “Diarrhea (ADR)” value (SAD, 400 mg (N = 6)) was 0 n (%) and the “Fatigue (ADR)” value (SAD, 400 mg (N = 6)) was 0 n (%). For the same molecule, the “Grade 2 ADRs” value (SAD, 400 mg (N = 6)) was 0 n (%), the “Grade ≥3 AEs” value (SAD, 400 mg (N = 6)) was 0 n (%) and the “Hypertriglyceridemia (ADR)” value (SAD, 400 mg (N = 6)) was 0 n (%). For the same molecule, the “Hyperuricemia (ADR)” value (SAD, 400 mg (N = 6)) was 0 n (%), the “Leukopenia (ADR)” value (SAD, 400 mg (N = 6)) was 0 n (%) and the “Nausea (ADR)” value (SAD, 400 mg (N = 6)) was 0 n (%). For the same molecule, the “Neutrophil decreased (ADR)” value (SAD, 400 mg (N = 6)) was 0 n (%), the “Palpitations (ADR)” value (SAD, 400 mg (N = 6)) was 0 n (%) and the “Serum creatinine elevated (ADR)” value (SAD, 400 mg (N = 6)) was 1 (16.7) n (%). The “participants reporting at least one ADR” value (SAD, 400 mg cohort, two participants) was 33.3%, the “ADR, n (%)” value (SAD, 800 mg (N = 6)) was 0 n (%) and the “AE, n (%)” value (SAD, 800 mg (N = 6)) was 1 (16.7) n (%). For the same molecule, the “ALT elevated (ADR)” value (SAD, 800 mg (N = 6)) was 0 n (%) and the “AST elevated (ADR)” value (SAD, 800 mg (N = 6)) was 0 n (%).
